Measurements published in PubChem BioAssay AID1963825 (Molecular Pharmacology Branch, DTP, NCI, 2024).
pIC50: −log10 of the molar value.

Experiment: Anticancer human tumor 997537-175-T-J1-PDC patient-derived colon adenocarcinoma cell line growth inhibition [POLQ]
Settings: 997537-175-T-J1-PDC complex spheroid viability, combination with POLQ inhibitors; for pIC50: curve of first compound; for viability, T/C: stronger effect = lower value
How it was run: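 Patient-derived tumour cells were co-cultured with HUVEC and mesenchymal stem cells as multicellular spheroids at 37 °C. They were treated with POLQ inhibitors (novobiocin, ART-558, RP6685) alone or combined with other agents. Top concentrations were at or near clinical Cmax (otherwise 10 microM; SN-38 at 1 microM), decreasing in half-log steps.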

[1] = second compound 0.0316 µM, first compound 0.0316 µM
[2] = second compound 0.0316 µM, first compound 0.1 µM
[3] = second compound 0.0316 µM, first compound 0.316 µM
[4] = second compound 0.0316 µM, first compound 1 µM
[5] = second compound 0.0316 µM, first compound 3.16 µM
[6] = second compound 0.0316 µM, first compound 10 µM
[7] = second compound 0.1 µM, first compound 0.0316 µM
[8] = second compound 0.1 µM, first compound 0.1 µM
[9] = second compound 0.1 µM, first compound 0.316 µM
[10] = second compound 0.1 µM, first compound 1 µM
[11] = second compound 0.1 µM, first compound 3.16 µM
[12] = second compound 0.1 µM, first compound 10 µM
[13] = second compound 0.316 µM, first compound 0.0316 µM
[14] = second compound 0.316 µM, first compound 0.1 µM
[15] = second compound 0.316 µM, first compound 0.316 µM
[16] = second compound 0.316 µM, first compound 1 µM
[17] = second compound 0.316 µM, first compound 3.16 µM
[18] = second compound 0.316 µM, first compound 10 µM
[19] = second compound 1 µM, first compound 0.0316 µM
[20] = second compound 1 µM, first compound 0.1 µM
[21] = second compound 1 µM, first compound 0.316 µM
[22] = second compound 1 µM, first compound 1 µM
[23] = second compound 1 µM, first compound 3.16 µM
[24] = second compound 1 µM, first compound 10 µM
[25] = second compound 3.16 µM, first compound 0.0316 µM
[26] = second compound 3.16 µM, first compound 0.1 µM
[27] = second compound 3.16 µM, first compound 0.316 µM
[28] = second compound 3.16 µM, first compound 1 µM
[29] = second compound 3.16 µM, first compound 3.16 µM
[30] = second compound 3.16 µM, first compound 10 µM
[31] = second compound 10 µM, first compound 0.0316 µM
[32] = second compound 10 µM, first compound 0.1 µM
[33] = second compound 10 µM, first compound 0.316 µM
[34] = second compound 10 µM, first compound 1 µM
[35] = second compound 10 µM, first compound 3.16 µM
[36] = second compound 10 µM, first compound 10 µM
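Further: luminescence signal used as a surrogate for viable cells; spheroids exposed to drugs for seven days before readout.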

C#Cc1c(F)ccc2cc(O)cc(-c3ncc4c(N5CC6CCC(C5)N6)nc(OCC56CCCN5CC(F)C6)nc4c3F)c12 (centres undefined) + Nc1ccc(C#CCN(C(=O)Cc2ncc(C(F)(F)F)cc2C(F)(F)F)c2ccc(F)cc2)nn1
pIC50 (second compound 0.0316 µM): < 5.00 | pIC50 (second compound 0.1 µM): < 5.00 | pIC50 (second compound 0.316 µM): < 5.00 | pIC50 (second compound 1 µM): < 5.00 | pIC50 (second compound 3.16 µM): < 5.00 | pIC50 (second compound 10 µM): < 5.00 | viability, T/C [1]: 92.4% | viability, T/C [2]: 93% | viability, T/C [3]: 108% | viability, T/C [4]: 106% | viability, T/C [5]: 102% | viability, T/C [6]: 96.5% | viability, T/C [7]: 101% | viability, T/C [8]: 110% | viability, T/C [9]: 101% | viability, T/C [10]: 86.8% | viability, T/C [11]: 94.1% | viability, T/C [12]: 96.7% | viability, T/C [13]: 105% | viability, T/C [14]: 105% | viability, T/C [15]: 101% | viability, T/C [16]: 96.9% | viability, T/C [17]: 103% | viability, T/C [18]: 110% | viability, T/C [19]: 106% | viability, T/C [20]: 103% | viability, T/C [21]: 95.8% | viability, T/C [22]: 82.8% | viability, T/C [23]: 106% | viability, T/C [24]: 98.1% | viability, T/C [25]: 94.9% | viability, T/C [26]: 103% | viability, T/C [27]: 99.5% | viability, T/C [28]: 92.7% | viability, T/C [29]: 104% | viability, T/C [30]: 107% | viability, T/C [31]: 104% | viability, T/C [32]: 102% | viability, T/C [33]: 100% | viability, T/C [34]: 112% | viability, T/C [35]: 98.8% | viability, T/C [36]: 110%

CC1COCCN1c1cc(C2(O)CC3CCC(C2)O3)c2cnn(-c3ccn[nH]3)c2n1 (centres undefined) + Nc1ccc(C#CCN(C(=O)Cc2ncc(C(F)(F)F)cc2C(F)(F)F)c2ccc(F)cc2)nn1
pIC50 (second compound 0.0316 µM): 5.77 | pIC50 (second compound 0.1 µM): < 5.00 | pIC50 (second compound 0.316 µM): < 5.00 | pIC50 (second compound 1 µM): 5.21 | pIC50 (second compound 3.16 µM): 5.50 | pIC50 (second compound 10 µM): < 5.00 | viability, T/C [1]: 94.8% | viability, T/C [2]: 83.7% | viability, T/C [3]: 58.4% | viability, T/C [4]: 56.8% | viability, T/C [5]: 40.1% | viability, T/C [6]: 53.3% | viability, T/C [7]: 98.8% | viability, T/C [8]: 73.5% | viability, T/C [9]: 42.5% | viability, T/C [10]: 72.8% | viability, T/C [11]: 48% | viability, T/C [12]: 64.5% | viability, T/C [13]: 93.2% | viability, T/C [14]: 80.8% | viability, T/C [15]: 49.9% | viability, T/C [16]: 46.3% | viability, T/C [17]: 51.4% | viability, T/C [18]: 75.1% | viability, T/C [19]: 97.3% | viability, T/C [20]: 69.4% | viability, T/C [21]: 63.1% | viability, T/C [22]: 47.6% | viability, T/C [23]: 58.6% | viability, T/C [24]: 44.7% | viability, T/C [25]: 82.4% | viability, T/C [26]: 79.1% | viability, T/C [27]: 42% | viability, T/C [28]: 56.4% | viability, T/C [29]: 42.8% | viability, T/C [30]: 74.7% | viability, T/C [31]: 94% | viability, T/C [32]: 79.9% | viability, T/C [33]: 55.3% | viability, T/C [34]: 52.2% | viability, T/C [35]: 62% | viability, T/C [36]: 65.2%
